Experimental data: patent US9617602B2, “Methods and compositions for determining resistance to androgen receptor therapy” (Aragon Pharmaceuticals, Inc., priority 2012, dated 2017)
Like-named read-outs stand apart in the source and are kept apart here.

Experiments:
[1] = tested on: LNCaP/AR(cs) cells; experiment: Proliferation assay (CellTiter-Glo), agonist and antagonist mode; assay type: cell-based, human
[2] = tested on: LNCaP/AR(cs) xenograft tumors; experiment: Tumor xenograft in castrated SHO male mice; assay type: in vivo
[3] = tested on: prostate specific antigen (PSA); assay type: in vivo
Excerpt: Patients with mCRPC were assigned sequentially to dose levels in cohorts of 3 to 6 patients per dose level using standard 3×3 dose-escalation criteria.
Eligible patients who signed informed consent documents were initially enrolled into a dose escalation cohort where they will receive a single oral dose of ARN-509 followed by a one-week observation period (PK Week). Continuous dosing began on Cycle 1 Day 1 assuming no unacceptable toxicities were observed.
A minimum of 3 subjects at each dose level were monitored for a DLT through day 28 of Cycle 1.
The starting dose was 30 mg/day, with escalations to 60 mg, 90 mg, 120 mg, 180 mg, 240 mg, 300 mg, 390 mg, and 480 mg daily. It was anticipated that these dose levels span the anticipated pharmacologically active dose range and be within the safety margin indicated by the preclinical toxicology results.
Following the selection of 240 mg as the RP2D, additional eligible patients were enrolled in the Phase 2 portion of the study, consisting of 3 concurrent expansion cohorts at the MTD and/or RP2D to gather additional safety information and provide an initial signal of anti-tumor activity. The three expansion cohorts included:
It was expected that each patient with mCRPC would receive at least 3 cycles (12 weeks) of continuous treatment and each patient with non-metastatic CRPC will receive at least 4 cycles (16 weeks) of continuous treatment. Treatment was discontinued at any time for protocol-defined disease progression or unacceptable toxicity. Tumor evaluations were performed every 3 cycles (12 weeks) for patients with mCRPC and every 4 cycles (16 weeks) for patients with non-metastatic CRPC. Safety was assessed from the first dose through at least four weeks after the last dose or until resolution of drug-related toxicity, or when toxicity is deemed irreversible, whichever was longer.

[4] = tested on: Class 1 resistant cell lines; experiment: Endogenous gene transcriptional assay (real-time PCR of androgen responsive genes); assay type: cell-based, human
Description: (§1) Total RNA was isolated using the Aurum™ total RNA isolation kit (BIO-RAD, Hercules, Calif.). RNA (1 μg) was reverse transcribed using the iScript cDNA synthesis kit (BIO-RAD, Hercules, Calif.) to produce cDNA. Real-time PCR was performed using the Applied Biosystems 7900HT instrument and SYBR Green PCR Master Mix (Applied Biosystems, Foster City, Calif.). PCR reactions were performed in 6 μL according to the manufacturer's protocol and a thermocycle protocol of 95° C. for 10 minutes followed by 40 cycles of 95° C. for 15 seconds and 58° C. for 1 minute. Androgen responsive gene (PSA, SLUG, TMPRSS2, STEAP4, FKBP5, ORM1, NOV, FASN, NKX3.1, AMIGO2, BDNF, CAMK2N1, HPGD, NCAPD3, PLD1) expression was normalized to GAPDH expression and expressed relative to vehicle treatment of the parental cell line.

[5] = tested on: Class 2 resistant cell lines; experiment: as above; assay type: cell-based, human
Description: as §1

Compound: CNC(=O)c1ccc(N2C(=S)N(c3cnc(C#N)c(C(F)(F)F)c3)C(=O)C23CCC3)cc1F [ARN-509]
- viability at 0.0001 µM ([1]; Homo sapiens, LNCaP/AR, 168 h, read-out: Antagonist Proliferation Assay (% Viability)): < 30%
- Agonist Proliferation Assay (% Viability) ([1]; LNCaP/AR(cs), [Antagonists] = 10 μM, 7 days): + (‘+’ = <30)
- Effect on LNCaP/AR(cs) xenograft tumors (Example 1) ([2]; 30 mg/kg QD orally, castrated SHO mice, initial response): induced tumor regression
- Anti-tumor activity in the LNCaP/AR(cs) model (Example 14) ([2]; 30 mg/kg/day oral gavage, castrate male mice): robust anti-tumor activity
- PSA, Patient 10 ([3]; Cycle 4): 102 % of TO
- PSA, Patient 13 ([3]; Cycle 4): 16.2 % of baseline
- PSA decline from baseline, Patient 7 ([3]; Cycle 4, 8 and 10): > 90%
- PSA below study start, Patient 13 ([3]; Cycle 11 and 12): > 60%
- 12 week PSA Response ([3]; Patient 1): 30.49
- PSA at Time of BEAMing Analysis [Percent of Baseline] ([3]; Patient 1, Treatment Cycle 19): 195.4% of Baseline
- 12 week PSA Response ([3]; Patient 2): −61.8
- PSA at Time of BEAMing Analysis [Percent of Baseline] ([3]; Patient 2, Treatment Cycle 10): 337.08% of Baseline
- 12 week PSA Response ([3]; Patient 3): 22.7
- PSA at Time of BEAMing Analysis [Percent of Baseline] ([3]; Patient 3, Treatment Cycle 4): 122% of Baseline
- 12 week PSA Response ([3]; Patient 4): 12.4
- PSA at Time of BEAMing Analysis [Percent of Baseline] ([3]; Patient 4, Treatment Cycle 5): 134% of Baseline
- 12 week PSA Response ([3]; Patient 5): −70.65
- PSA at Time of BEAMing Analysis [Percent of Baseline] ([3]; Patient 5, Treatment Cycle 8): 16% of Baseline
- 12 week PSA Response ([3]; Patient 6): −90.02
- PSA at Time of BEAMing Analysis [Percent of Baseline] ([3]; Patient 6, Treatment Cycle 10): 84.6% of Baseline
- 12 week PSA Response ([3]; Patient 7): −98.6
- PSA [Percent of Day 0] ([3]; Patient 7, Treatment Cycle 4): 1.4% of Day 0
- PSA [Percent of Day 0] ([3]; Patient 7, Treatment Cycle 8): 3.3% of Day 0
- PSA [Percent of Day 0] ([3]; Patient 7, Treatment Cycle 10): 5.6% of Day 0
- PSA [Percent of Day 0] ([3]; Patient 7, Treatment Cycle 15): 41.2% of Day 0
- PSA [Percent of Day 0] ([3]; Patient 7, Treatment Cycle 19): 97.2% of Day 0
- PSA [Percent of Day 0] ([3]; Patient 7, Treatment Cycle 22): 281.0% of Day 0
- PSA at Time of BEAMing Analysis [Percent of Baseline] ([3]; Patient 7, Treatment Cycle 22): 281% of Baseline
- 12 week PSA Response ([3]; Patient 8): −62.2
- PSA at Time of BEAMing Analysis [Percent of Baseline] ([3]; Patient 8, Treatment Cycle 16): 10.2% of Baseline
- 12 week PSA Response ([3]; Patient 9): 26.38
- PSA at Time of BEAMing Analysis [Percent of Baseline] ([3]; Patient 9, Treatment Cycle 7): 185% of Baseline
- 12 week PSA Response ([3]; Patient 10): 2.33
- PSA [Percent of Day 0] ([3]; Patient 10, Treatment Cycle 4): 102% of Day 0
- PSA [Percent of Day 0] ([3]; Patient 10, Treatment Cycle 7): 245% of Day 0
- PSA at Time of BEAMing Analysis [Percent of Baseline] ([3]; Patient 10, Treatment Cycle 7): 245% of Baseline
- 12 week PSA Response ([3]; Patient 11): −49.76
- PSA at Time of BEAMing Analysis [Percent of Baseline] ([3]; Patient 11, Treatment Cycle 8): 143.88% of Baseline
- 12 week PSA Response ([3]; Patient 12): −56.65
- PSA at Time of BEAMing Analysis [Percent of Baseline] ([3]; Patient 12, Treatment Cycle 7): 99.47% of Baseline
- 12 week PSA Response ([3]; Patient 13): −83.79
- PSA [Percent of Day 0] ([3]; Patient 13, Treatment Cycle 4): 16.2% of Day 0
- PSA [Percent of Day 0] ([3]; Patient 13, Treatment Cycle 11): 31.7% of Day 0
- PSA at Time of BEAMing Analysis [Percent of Baseline] ([3]; Patient 13, Treatment Cycle 11): 31.7% of Baseline
- PSA [Percent of Day 0] ([3]; Patient 13, Treatment Cycle 12): 39.5% of Day 0
- 12 week PSA Response ([3]; Patient 14): −43.21
- PSA at Time of BEAMing Analysis [Percent of Baseline] ([3]; Patient 14, Treatment Cycle 11): 150.5% of Baseline
- 12 week PSA Response ([3]; Patient 15): 164.14
- PSA at Time of BEAMing Analysis [Percent of Baseline] ([3]; Patient 15, Treatment Cycle 3): 220% of Baseline
- 12 week PSA Response ([3]; Patient 16): 89.09
- PSA at Time of BEAMing Analysis [Percent of Baseline] ([3]; Patient 16, Treatment Cycle 4): 189% of Baseline
- 12 week PSA Response ([3]; Patient 17): −45.86
- PSA at Time of BEAMing Analysis [Percent of Baseline] ([3]; Patient 17, Treatment Cycle 4): 54.14% of Baseline
- 12 week PSA Response ([3]; Patient 18): −95.65
- PSA at Time of BEAMing Analysis [Percent of Baseline] ([3]; Patient 18, Treatment Cycle 6): 7.34% of Baseline
- 12 week PSA Response ([3]; Patient 19): −71.19
- PSA at Time of BEAMing Analysis [Percent of Baseline] ([3]; Patient 19, Treatment Cycle 11): 196.86% of Baseline
- 12 week PSA Response ([3]; Patient 20): −30.88
- PSA at Time of BEAMing Analysis [Percent of Baseline] ([3]; Patient 20, Treatment Cycle 21): 89.3% of Baseline
- 12 week PSA Response ([3]; Patient 21): −74.43
- PSA at Time of BEAMing Analysis [Percent of Baseline] ([3]; Patient 21, Treatment Cycle 10): 46.91% of Baseline
- 12 week PSA Response ([3]; Patient 22): −82.7
- PSA at Time of BEAMing Analysis [Percent of Baseline] ([3]; Patient 22, Treatment Cycle 25): 0.19% of Baseline
- 12 week PSA Response ([3]; Patient 23): 97.78
- PSA at Time of BEAMing Analysis [Percent of Baseline] ([3]; Patient 23, Treatment Cycle 8): 222.46% of Baseline
- 12 week PSA Response ([3]; Patient 24): −74.86
- PSA at Time of BEAMing Analysis [Percent of Baseline] ([3]; Patient 24, Treatment Cycle 25): 4.89% of Baseline
- 12 week PSA Response ([3]; Patient 25): −30.07
- PSA at Time of BEAMing Analysis [Percent of Baseline] ([3]; Patient 25, Treatment Cycle 12): 161% of Baseline
- 12 week PSA Response ([3]; Patient 26): 96.51
- PSA at Time of BEAMing Analysis [Percent of Baseline] ([3]; Patient 26, Treatment Cycle 5): 214.85% of Baseline
- 12 week PSA Response ([3]; Patient 27): −0.89
- PSA at Time of BEAMing Analysis [Percent of Baseline] ([3]; Patient 27, Treatment Cycle 13): 20.69% of Baseline
- 12 week PSA Response ([3]; Patient 28): −33.59
- PSA at Time of BEAMing Analysis [Percent of Baseline] ([3]; Patient 28, Treatment Cycle 10): 126% of Baseline
- 12 week PSA Response ([3]; Patient 29): −58.44
- PSA at Time of BEAMing Analysis [Percent of Baseline] ([3]; Patient 29, Treatment Cycle 13): 105% of Baseline
- Patients exhibiting a 12 week ≧50% decline in PSA compared to baseline ([3]; across all dose groups): 14/30
- Recommended Phase 2 dose (RP2D) ([3]; human, in vivo, po, 28 days): 240 mg

Compound: CNC(=O)c1ccc(N2C(=S)N(c3ccc(C#N)c(C(F)(F)F)c3)C(=O)C2(C)C)cc1F [Enzalutamide, enzalutamide]
- Transcriptional activity on endogenous androgen-responsive genes, Class 1 resistant cells [4]: weak transcriptional agonist
- Transcriptional activity on endogenous androgen-responsive genes, Class 2 resistant cell lines [5]: robust transcriptional agonist activity
